# Test results taken from ChEMBL document CHEMBL1201862, “PubChem BioAssay data set” (2004).
#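 Interpolation was linear, between the two tested concentrations surrounding the appropriate level; five concentrations were tested over 48 hours in 96-well plates. Abbreviation: GI50, concentration required for 50% inhibition of growth.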 Active and inactive are the calls of the source. Cut-off read from the data, not from the text of the source: active = GI50 up to about 1.1 µM and inactive = higher.
# What was measured:
# Experiment in all cases: growth of human tumour cells (NCI), 48 h
# M14 = tested on: M14
# HCT-116 = tested on: HCT-116
# MCF7 = tested on: MCF7
# DU-145 = tested on: DU-145
# SR = tested on: SR
# NCI-H23 = tested on: NCI-H23
# ACHN = tested on: ACHN
# NCI-H460 = tested on: NCI-H460
# T47D = tested on: T47D
# NCI-H522 = tested on: NCI-H522
# SNB-19 = tested on: SNB-19
# UO-31 = tested on: UO-31
# SK-MEL-5 = tested on: SK-MEL-5
# K562 = tested on: K562
# HOP-62 = tested on: HOP-62
# U-251 = tested on: U-251
# BT-549 = tested on: BT-549
# UACC-257 = tested on: UACC-257
# A549 = tested on: A549
# SF-268 = tested on: SF-268
# 786-0 = tested on: 786-0
# MOLT-4 = tested on: MOLT-4
# UACC-62 = tested on: UACC-62
# SF-539 = tested on: SF-539
# IGROV-1 = tested on: IGROV-1
# SK-OV-3 = tested on: SK-OV-3
# SW-620 = tested on: SW-620
# HT-29 = tested on: HT-29
# HOP-92 = tested on: HOP-92
# A498 = tested on: A498
# SF-295 = tested on: SF-295
# KM12 = tested on: KM12
# Hs-578T = tested on: Hs-578T
# SK-MEL-2 = tested on: SK-MEL-2
# OVCAR-8 = tested on: OVCAR-8
# MDA-MB-231 = tested on: MDA-MB-231
# NCI-H226 = tested on: NCI-H226
# COLO 205 = tested on: COLO 205
# HL-60 = tested on: HL-60
# RXF 393 = tested on: RXF 393
# LOX IMVI = tested on: LOX IMVI
# NCI/ADR-RES = tested on: NCI/ADR-RES
# OVCAR-4 = tested on: OVCAR-4
# HCC 2998 = tested on: HCC 2998
# SNB-75 = tested on: SNB-75
# HCT-15 = tested on: HCT-15
# EKVX = tested on: EKVX
# TK-10 = tested on: TK-10
# CAKI-1 = tested on: CAKI-1
# CCRF-CEM = tested on: CCRF-CEM
# MDA-MB-435 = tested on: MDA-MB-435
# SK-MEL-28 = tested on: SK-MEL-28
# RPMI-8226 = tested on: RPMI-8226
# PC-3 = tested on: PC-3
compound,measurement,setting,value
CC[C@@]1(O)C(=O)OCc2c1cc1n(c2=O)Cc2c-1nc1ccccc1c2/C=N\c1ccc(N[C@@H]2c3cc4c(cc3[C@@H](c3cc(OC)c(O)c(OC)c3)[C@H]3C(=O)OC[C@@H]32)OCO4)cc1,GI50,M14,0.0194 µM (active)
same,GI50,HCT-116,0.033 µM (active)
same,GI50,MCF7,< 0.01 µM (active)
same,GI50,DU-145,< 0.01 µM (active)
same,GI50,SR,< 0.01 µM (active)
same,GI50,NCI-H23,0.0198 µM (active)
same,GI50,ACHN,< 0.01 µM (active)
same,GI50,NCI-H460,< 0.01 µM (active)
same,GI50,T47D,< 0.014 µM (active)
same,GI50,NCI-H522,0.0427 µM (active)
same,GI50,SNB-19,0.0446 µM (active)
same,GI50,UO-31,0.0403 µM (active)
same,GI50,SK-MEL-5,0.0315 µM (active)
same,GI50,K562,0.0585 µM (active)
same,GI50,HOP-62,< 0.0136 µM (active)
same,GI50,U-251,0.171 µM (active)
same,GI50,BT-549,0.11 µM (active)
same,GI50,UACC-257,0.315 µM (active)
same,GI50,A549,0.038 µM (active)
same,GI50,SF-268,< 0.0185 µM (active)
same,GI50,786-0,< 0.0104 µM (active)
same,GI50,MOLT-4,< 0.01 µM (active)
CC1=NN(c2nc(N)nc(CF)n2)C(C)(C)C1,GI50,UACC-62,> 100 µM (inactive)
same,GI50,SF-539,> 100 µM (inactive)
same,GI50,IGROV-1,> 100 µM (inactive)
same,GI50,M14,> 100 µM (inactive)
same,GI50,HCT-116,> 100 µM (inactive)
same,GI50,MCF7,> 100 µM (inactive)
same,GI50,SK-OV-3,> 100 µM (inactive)
same,GI50,DU-145,> 100 µM (inactive)
same,GI50,SW-620,> 100 µM (inactive)
same,GI50,HT-29,> 100 µM (inactive)
same,GI50,HOP-92,> 100 µM (inactive)
same,GI50,A498,> 100 µM (inactive)
same,GI50,SF-295,> 100 µM (inactive)
same,GI50,KM12,> 100 µM (inactive)
same,GI50,Hs-578T,> 100 µM (inactive)
same,GI50,SK-MEL-2,> 100 µM (inactive)
same,GI50,OVCAR-8,> 100 µM (inactive)
same,GI50,MDA-MB-231,> 100 µM (inactive)
same,GI50,NCI-H226,> 100 µM (inactive)
same,GI50,COLO 205,> 100 µM (inactive)
same,GI50,HL-60,> 100 µM (inactive)
same,GI50,SR,> 100 µM (inactive)
same,GI50,NCI-H23,> 100 µM (inactive)
same,GI50,RXF 393,> 100 µM (inactive)
same,GI50,ACHN,> 100 µM (inactive)
same,GI50,LOX IMVI,> 100 µM (inactive)
same,GI50,NCI/ADR-RES,> 100 µM (inactive)
same,GI50,OVCAR-4,> 100 µM (inactive)
same,GI50,NCI-H460,> 100 µM (inactive)
same,GI50,T47D,> 100 µM (inactive)
same,GI50,SNB-19,> 100 µM (inactive)
same,GI50,HCC 2998,> 100 µM (inactive)
same,GI50,SNB-75,> 100 µM (inactive)
same,GI50,UO-31,> 100 µM (inactive)
same,GI50,HCT-15,> 100 µM
same,GI50,SK-MEL-5,> 100 µM (inactive)
same,GI50,EKVX,> 100 µM (inactive)
same,GI50,K562,49.3 µM (inactive)
same,GI50,HOP-62,> 100 µM (inactive)
same,GI50,TK-10,> 100 µM (inactive)
same,GI50,CAKI-1,> 100 µM (inactive)
same,GI50,U-251,> 100 µM (inactive)
same,GI50,CCRF-CEM,> 100 µM (inactive)
same,GI50,BT-549,> 100 µM (inactive)
same,GI50,MDA-MB-435,> 100 µM (inactive)
same,GI50,SK-MEL-28,> 100 µM (inactive)
same,GI50,UACC-257,> 100 µM (inactive)
same,GI50,SF-268,> 100 µM (inactive)
same,GI50,RPMI-8226,> 100 µM (inactive)
same,GI50,786-0,> 100 µM (inactive)
same,GI50,MOLT-4,> 100 µM (inactive)
same,GI50,PC-3,> 100 µM (inactive)
